Reference: patent US9085555B2, “Complement pathway modulators and uses thereof” (priority 2011, dated 2015)

The compounds below were run against Factor D (Homo sapiens (Human), UniProt P00746) (assay: biochemical). Conditions: read-out: IC50.
Chain of Factor D (P00746 26-253): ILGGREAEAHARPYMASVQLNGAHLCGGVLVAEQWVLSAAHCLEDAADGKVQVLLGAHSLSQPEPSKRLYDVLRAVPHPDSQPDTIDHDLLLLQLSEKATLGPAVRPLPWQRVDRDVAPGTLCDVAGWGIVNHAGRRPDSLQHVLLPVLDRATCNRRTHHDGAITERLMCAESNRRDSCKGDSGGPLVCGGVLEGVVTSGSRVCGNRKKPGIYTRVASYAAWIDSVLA
Type: biochemical
`CNC(=O)n1cc(NC(=O)N2[C@@H]3C[C@@H]3C[C@H]2C(=O)N[C@H](CN(C)C)c2cccc(Cl)c2F)c2ccccc21` [Example 289, (1R,3S,5R)-2-Aza-bicyclo[3.1.0]hexane-2,3-dicarboxylic acid 3-{[(S)-1-(3-chloro-2-fluoro-phenyl)-2-dimethylamino-ethyl]-amide} 2-[(1-methylcarbamoyl-1H-indol-3-yl)-amide]] gave an IC50 of 555 nM. With `NC(=O)n1cc(NC(=O)N2CCC[C@H]2C(=O)Nc2cccc(OC(F)(F)F)c2)c2ccc(Cl)cc21` [Example 291, (S)-Pyrrolidine-1,2-dicarboxylic acid 1-[(1-carbamoyl-6-chloro-1H-indol-3-yl)-amide] 2-[(3-trifluoromethoxy-phenyl)-amide]] the IC50 was 3250 nM. For `COc1ccc2c(c1)c(NC(=O)N1C[C@H](F)C[C@H]1C(=O)NCc1cccc(Cl)c1F)cn2C(N)=O` [Example 292, (2S,4R)-4-Fluoro-pyrrolidine-1,2-dicarboxylic acid 1-[(1-carbamoyl-5-methoxy-1H-indol-3-yl)-amide] 2-(3-chloro-2-fluoro-benzylamide)], the IC50 was 3 nM. `NC(=O)n1cc(NC(=O)N2CCS[C@H]2C(=O)NCc2ccc(Cl)s2)c2ccccc21` [Example 293, (S)-Thiazolidine-2,3-dicarboxylic acid 3-[(1-carbamoyl-1H-indol-3-yl)-amide] 2-[(5-chloro-thiophen-2-ylmethyl)-amide]] showed an IC50 of 35 nM. `NC(=O)n1cc(NC(=O)N2C3CC3C[C@H]2C(=O)NCc2cccc(Cl)c2F)c2cc(F)ccc21` (stereo partly drawn) [Example 294, (1R,3S,5R)-2-Aza-bicyclo[3.1.0]hexane-2,3-dicarboxylic acid 2-[(1-carbamoyl-5-fluoro-1H-indol-3-yl)-amide] 3-(3-chloro-2-fluoro-benzylamide)] gave an IC50 of 5 nM. In the case of `NC(=O)n1cc(NC(=O)N2C3CC3C[C@H]2C(=O)NCc2cnc(Cl)s2)c2ccccc21` (stereo partly drawn) [Example 295, (1R,3S,5R)-2-Aza-bicyclo[3.1.0]hexane-2,3-dicarboxylic acid 2-[(1-carbamoyl-1H-indol-3-yl)-amide] 3-[(2-chloro-thiazol-5-ylmethyl)-amide]], the IC50 is reported as 150 nM. `NC(=O)n1cc(NC(=O)N2C[C@H](F)C[C@H]2C(=O)N[C@@H](c2cccc(Cl)c2)C(F)(F)F)c2ccccc21` [Example 296, (2S,4R)-4-Fluoro-pyrrolidine-1,2-dicarboxylic acid 1-[(1-carbamoyl-1H-indol-3-yl)-amide] 2-{[(S)-1-(3-chloro-phenyl)-2,2,2-trifluoro-ethyl]-amide}] gave an IC50 of 218 nM. `NC(=O)n1cc(NC(=O)N2C3CC3C[C@H]2C(=O)Nc2cccc(OC(F)(F)F)c2)c2ccc(F)cc21` (stereo partly drawn) [Example 297, (1R,3S,5R)-2-Aza-bicyclo[3.1.0]hexane-2,3-dicarboxylic acid 2-[(1-carbamoyl-6-fluoro-1H-indol-3-yl)-amide] 3-[(3-trifluoromethoxy-phenyl)-amide]] was tested, and the IC50 was 350 nM. In the case of `COc1ccc2c(c1)c(NC(=O)N1C[C@H](F)C[C@H]1C(=O)Nc1cccc(OC(F)(F)F)c1F)cn2C(N)=O` [Example 298, (2S,4R)-4-Fluoro-pyrrolidine-1,2-dicarboxylic acid 1-[(1-carbamoyl-5-methoxy-1H-indol-3-yl)-amide] 2-[(2-fluoro-3-trifluoromethoxy-phenyl)-amide]], the IC50 is reported as 7 nM. In the case of `NC(=O)n1cc(NC(=O)N2CC[C@H]2C(=O)Nc2cccc(OC(F)(F)F)c2)c2ccccc21` [Example 299, (S)-Azetidine-1,2-dicarboxylic acid 1-[(1-carbamoyl-1H-indol-3-yl)-amide] 2-[(3-trifluoromethoxy-phenyl)-amide]], the IC50 is reported as 1800 nM. For `COc1ccc2c(c1)c(NC(=O)N1C3CC3C[C@H]1C(=O)NCc1cccc(Cl)c1F)cn2C(N)=O` (stereo partly drawn) [Example 300, (1R,3S,5R)-2-Aza-bicyclo[3.1.0]hexane-2,3-dicarboxylic acid 2-[(1-carbamoyl-5-methoxy-1H-indol-3-yl)-amide] 3-(3-chloro-2-fluoro-benzylamide)], the IC50 was 4 nM. `NC(=O)n1cc(NC(=O)N2CC(F)(F)C[C@H]2C(=O)NCc2cccc(Cl)c2F)c2ccccc21` [Example 301, (S)-4,4-Difluoro-pyrrolidine-1,2-dicarboxylic acid 1-[(1-carbamoyl-1H-indol-3-yl)-amide] 2-(3-chloro-2-fluoro-benzylamide)] was tested, and the IC50 was 95 nM. Compound `CC1(C)CC[C@@H](C(=O)NCc2cccc(Cl)c2F)N1C(=O)Nc1cn(C(N)=O)c2ccccc12` [Example 302, (S)-5,5-Dimethyl-pyrrolidine-1,2-dicarboxylic acid 1-[(1-carbamoyl-1H-indol-3-yl)-amide] 2-(3-chloro-2-fluoro-benzylamide)] has an IC50 of 75 nM. For `COCCOc1ccc2c(c1)c(NC(=O)N1C[C@H](F)C[C@H]1C(=O)NCc1cccc(Cl)c1F)cn2C(N)=O` [Example 303, (2S,4R)-4-Fluoro-pyrrolidine-1,2-dicarboxylic acid 1-{[1-carbamoyl-5-(2-methoxy-ethoxy)-1H-indol-3-yl]-amide} 2-(3-chloro-2-fluoro-benzylamide)], the IC50 was 8 nM. With `Cc1ccnc(CNC(=O)[C@@H]2C[C@@H](F)CN2C(=O)Nc2cn(C(N)=O)c3ccccc23)c1F` [Example 304, (2S,4R)-4-Fluoro-pyrrolidine-1,2-dicarboxylic acid 1-[(1-carbamoyl-1H-indol-3-yl)-amide] 2-[(3-fluoro-4-methyl-pyridin-2-ylmethyl)-amide]] the IC50 was 653 nM. Work on `NC(=O)n1cc(NC(=O)N2C[C@H](F)C[C@H]2C(=O)NCc2cncc(C(F)(F)F)c2)c2ccccc21` [Example 305, (2S,4R)-4-Fluoro-pyrrolidine-1,2-dicarboxylic acid 1-[(1-carbamoyl-1H-indol-3-yl)-amide] 2-[(5-trifluoromethyl-pyridin-3-ylmethyl)-amide]] yielded an IC50 of 1350 nM. `CCOC(=O)Cc1ccc2c(c1)c(NC(=O)N1[C@@H]3C[C@@H]3C[C@H]1C(=O)NCc1cccc(Cl)c1F)cn2C(N)=O` [Example 306, (1-carbamoyl-3-{[(1R,3S,5R)-3-(3-chloro-2-fluoro-benzylcarbamoyl)-2-aza-bicyclo[3.1.0]hexane-2-carbonyl]-amino}-1H-indol-5-yl)-acetic acid ethyl ester] was tested, and the IC50 was 4 nM. Work on `NC(=O)n1cc(NC(=O)N2CCC3C[C@@]32C(=O)Nc2cccc(OC(F)(F)F)c2)c2ccccc21` (stereo partly drawn) [Example 307, (1S,5R)-2-Aza-bicyclo[3.1.0]hexane-1,2-dicarboxylic acid 2-[(1-carbamoyl-1H-indol-3-yl)-amide] 1-[(3-trifluoromethoxy-phenyl)-amide]] yielded an IC50 of 13300 nM. Work on `NC(=O)n1cc(NC(=O)N2C[C@H](F)C[C@H]2C(=O)NCc2cccc(Cl)c2F)c2ccc(OC(F)F)cc21` [Example 308, (2S,4R)-4-Fluoro-pyrrolidine-1,2-dicarboxylic acid 1-[(1-carbamoyl-6-difluoromethoxy-1H-indol-3-yl)-amide] 2-(3-chloro-2-fluoro-benzylamide)] yielded an IC50 of 127 nM. In the case of `COc1cc(NC(=O)[C@@H]2C[C@@H](F)CN2C(=O)Nc2cn(C(N)=O)c3ccccc23)ccn1` [Example 309, (2S,4R)-4-Fluoro-pyrrolidine-1,2-dicarboxylic acid 1-[(1-carbamoyl-1H-indol-3-yl)-amide] 2-[(2-methoxy-pyridin-4-yl)-amide]], the IC50 is reported as 550 nM. For `NC(=O)n1cc(NC(=O)N2CCS[C@H]2C(=O)Nc2cncc(Cl)c2)c2ccccc21` [Example 310, (S)-Thiazolidine-2,3-dicarboxylic acid 3-[(1-carbamoyl-1H-indol-3-yl)-amide] 2-[(5-chloro-pyridin-3-yl)-amide]], the IC50 was 475 nM.
